Among the data in patent publication US7410755B2, “ADP detection using an enzyme-coupled reaction” (Discoverx, priority 2005, dated 2008) are Km values, retold here.

This test deals with Protein Kinase A (PKA) (Homo sapiens, UniProt P17612). The note with it: read-out: Km of ATP for PKA; Kemptide substrate, PKA (Upstate), 30° C. for 1 hour; fitted to Michaelis-Menten equation; FIG. 4.

Description: In this second example, kinase reaction, the activity of PKA is characterized further. In this experiment, the kinetics of ATP on PKA activity was examined by measuring the rate of kinase activity at varying concentration of ATP. The results of this assay were fitted to the Michaelis-Menten equation so that the Km (Michaelis-Menten constant) of ATP for PKA could be determined.
To perform a protein kinase assay using the ADP Detection Assay, the assay reagents were thawed at room temperature for several hours.
Low salt assay buffer (LS ASB) was used to dilute all reagents in the kinase reaction and consisted of 15 mM Hepes, 20 mM NaCl, 1 mM EGTA, 0.02% Tween 20, 10 mM MgCl2, 0.1% bovine gamma globulin at pH 7.4. Substrate reagent was generated containing 800 μM Kemptide substrate. […] PKA kinase (Upstate) was diluted to give a reagent of 20 ng/ml. […]
To detect the generation of ADP as a result of kinase activity, 10 μ ADP Substrate Reagent was added followed immediately by 20 μl of ADP Enzyme Reagent. […] Assay signal was measured with a Fluorocount® fluorescent plate reader (Packard) using 0.1 second integration with excitation and emission wavelengths at 530 and 590 nm respectively and a PMT voltage of 750 Volts.
The data was converted by dividing the signal measured by 60 to obtain the enzyme rate in RFU per minute. […]

By Km is commonly meant the concentration of substrate that gives half-maximal velocity. With `Nc1ncnc2c1ncn2[C@@H]1O[C@H](COP(=O)(O)OP(=O)(O)OP(=O)(O)O)[C@@H](O)[C@H]1O` [ATP], the Michaelis constant (Km) came out at 22.3 µM.
